Assay results reported in ChEMBL document CHEMBL1201862, “PubChem BioAssay data set” (2004).
Activity calls are given as the source filed them.

Experiments:
[1] = biological target: Nuclear receptor subfamily 5 group A member 2 (Homo sapiens, UniProt O00482); assay type: functional, cell-based;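 note: HEK293T cells transfected with LRH-1 and a StAR promoter luciferase reporter; potency for inhibitors that lower LRH-1 driven reporter light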
[2] = StAR promoter reporter inhibition counter-screen, dose response, counter-screen for LRH-1 inverse agonist project, cell-based, luminescence, luciferase reporter (AID 651969); assay type: functional
[3] = biological target: Steroidogenic factor 1 (Homo sapiens, UniProt Q13285); experiment: Counterscreen for inverse agonists of the liver receptor homolog-1 (LRH-1; NR5A2): Luminescence-based cell-based high throughput dose response assay to identify inverse agonists of the Steroidogenic Factor 1 Nuclear Receptor (SF1; NR5A1).; assay type: functional
[4] = biological target: Luciferin 4-monooxygenase (Photinus pyralis, UniProt P08659); experiment: firefly luciferase enzyme inhibitors, dose response, biochemical, luminescence (AID 1891)
[5] = Luminescence Cell-Based Dose Confirmation HTS to Identify Inhibitors of Platelet Dense Granule Release. [Related pubchem assays: 1663 (Primary HTS), 1678 (Summary of Project)]; assay type: functional
[6] = biological target: Mitogen-activated protein kinase 10 (Homo sapiens, UniProt P53779); experiment: Dose response biochemical screening assay for inhibitors of c-Jun N-Terminal Kinase 3 (JNK3). [Related pubchem assays: 746 ]
[7] = P. falciparum Dd2 growth inhibitors, dose response, SYBR Green, dry powder samples (AID 1159566); assay type: functional, cell-based;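 note: potency for growth inhibition with lower SYBR green DNA signal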
[8] = HepG2 cell cytotoxicity, dose response, cytotoxicity control, plate reader, dry powder samples (AID 1159569); assay type: functional, cell-based;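 note: inhibitor potency with signal falling toward the positive control level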
[9] = P. falciparum 3D7-ScDHODH growth inhibitors, dose response, SYBR Green, dry powder samples (AID 1159570); assay type: functional, cell-based;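 note: parasite growth measured after 72 hours of compound exposure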
[10] = P. falciparum ATP4 D1247Y mutant growth inhibitors, dose response, NITD609-resistant line, SYBR Green, dry powder (AID 1159571); assay type: functional, cell-based;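 note: parasites synchronized at ring stage by sorbitol before testing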
[11] = P. falciparum Dd2 growth inhibitors, dose response, SYBR Green, cherry-picked samples (AID 1159567); assay type: functional, cell-based
[12] = biological target: T1, Endoribonuclease toxin MazF (Escherichia coli K-12, UniProt P0AE70); experiment: fluorescent RNA oligo signal without MazF, dose response, counter-screen for MazEF activator project, biochemical, fluorescence, single-stranded RNase substrate (AID 588502); assay type: functional
T1 sequence (P0AE70 whole entry): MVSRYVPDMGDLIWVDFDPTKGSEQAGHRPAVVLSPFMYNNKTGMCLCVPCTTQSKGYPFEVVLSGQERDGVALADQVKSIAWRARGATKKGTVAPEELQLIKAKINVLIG

[13] = biological target: T1, Endoribonuclease toxin MazF; experiment: MazF toxin RNase activators, dose response, biochemical, fluorescence, single-stranded RNA substrate, uHTS hits (AID 588481); assay type: functional
[14] = biological target: T2, DNA repair protein RAD52 homolog (Homo sapiens, UniProt P43351); assay type: functional, biochemical
T2 sequence (P43351 whole entry): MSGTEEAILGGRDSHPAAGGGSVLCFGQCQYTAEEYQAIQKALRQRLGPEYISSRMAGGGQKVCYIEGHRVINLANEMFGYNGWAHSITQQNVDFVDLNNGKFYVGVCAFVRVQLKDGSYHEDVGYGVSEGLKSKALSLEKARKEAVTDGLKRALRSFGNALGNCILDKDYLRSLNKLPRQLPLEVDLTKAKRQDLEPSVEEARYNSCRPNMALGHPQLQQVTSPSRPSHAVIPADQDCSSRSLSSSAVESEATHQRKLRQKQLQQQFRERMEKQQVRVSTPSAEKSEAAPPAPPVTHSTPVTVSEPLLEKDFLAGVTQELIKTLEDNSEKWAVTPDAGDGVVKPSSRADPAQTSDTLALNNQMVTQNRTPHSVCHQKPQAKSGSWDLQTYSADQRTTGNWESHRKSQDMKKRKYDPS

[15] = intracellular Trypanosoma cruzi inhibitors in host cells – cell-based, plate reader, cherry-pick samples, set 3, dose response (AID 651818); assay type: functional;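 note: compounds incubated with infected cells for about four days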
[16] = inhibitors of intracellular T. cruzi replication, confirmation, NIH3T3 host cells, beta-gal luminescence (AID 2044); assay type: functional, cell-based;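 note: intracellular parasites grown in NIH/3T3 mouse fibroblasts as host cells; luminescent beta-galactosidase reporter signal from transgenic T. cruzi replicating inside host cells; inhibitors lower the luminescence signal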
[17] = cytotoxicity toward NIH3T3 fibroblasts, dose response, counter-screen, cell-based, ATP luminescence, mouse fibroblasts (AID 2010); assay type: functional;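 note: cells exposed to compound for about 90 hours before reading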
[18] = biological target: T3, High affinity choline transporter 1 (Homo sapiens, UniProt Q9GZV3); experiment: CHT inhibitors, dose response, cell-based, 5-point CRC, membrane potential dye (AID 504840); assay type: functional
T3 sequence (Q9GZV3 whole entry): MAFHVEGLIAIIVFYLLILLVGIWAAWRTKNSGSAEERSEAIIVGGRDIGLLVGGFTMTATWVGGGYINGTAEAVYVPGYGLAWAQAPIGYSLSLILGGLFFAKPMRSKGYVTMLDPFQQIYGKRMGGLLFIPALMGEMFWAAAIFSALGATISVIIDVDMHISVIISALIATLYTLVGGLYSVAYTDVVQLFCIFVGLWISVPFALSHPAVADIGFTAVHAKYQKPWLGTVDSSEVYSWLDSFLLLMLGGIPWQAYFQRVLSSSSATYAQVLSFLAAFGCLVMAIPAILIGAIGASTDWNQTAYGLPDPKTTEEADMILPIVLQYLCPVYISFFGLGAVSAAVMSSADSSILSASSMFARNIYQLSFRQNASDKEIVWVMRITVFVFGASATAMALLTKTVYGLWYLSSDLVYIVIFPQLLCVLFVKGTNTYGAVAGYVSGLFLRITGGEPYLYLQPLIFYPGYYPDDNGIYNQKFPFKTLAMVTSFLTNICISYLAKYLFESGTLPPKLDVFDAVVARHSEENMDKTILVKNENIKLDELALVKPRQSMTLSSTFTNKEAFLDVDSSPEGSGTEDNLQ

[19] = test system: H9c2; experiment: cells; assay type: functional, cell-based; conditions: Rattus norvegicus, H9c2, Myocardium;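 note: confirmatory concentration-response retest of ultra-high-throughput screening hits for modulation of myocardial damage; cell death induced by hydrogen peroxide oxidative stress; compound pretreatment for 60 min then peroxide exposure for 2 h; potency is for protecting the cells against peroxide damage rather than for killing them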

Chain of Mitogen-activated protein kinase 10 (P53779 whole entry): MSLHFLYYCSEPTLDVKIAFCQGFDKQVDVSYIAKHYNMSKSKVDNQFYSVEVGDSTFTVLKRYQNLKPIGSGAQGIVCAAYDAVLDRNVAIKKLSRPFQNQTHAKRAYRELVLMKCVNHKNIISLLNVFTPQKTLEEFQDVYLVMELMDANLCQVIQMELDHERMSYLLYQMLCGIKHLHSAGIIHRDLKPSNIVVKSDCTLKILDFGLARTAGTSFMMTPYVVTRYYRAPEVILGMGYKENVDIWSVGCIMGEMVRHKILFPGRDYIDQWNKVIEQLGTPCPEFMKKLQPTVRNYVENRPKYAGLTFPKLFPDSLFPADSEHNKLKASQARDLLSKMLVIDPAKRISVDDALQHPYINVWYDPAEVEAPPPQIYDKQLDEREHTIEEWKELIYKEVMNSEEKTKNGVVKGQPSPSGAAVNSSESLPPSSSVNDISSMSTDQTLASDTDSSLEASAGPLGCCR
Chain of Steroidogenic factor 1 (Q13285 whole entry): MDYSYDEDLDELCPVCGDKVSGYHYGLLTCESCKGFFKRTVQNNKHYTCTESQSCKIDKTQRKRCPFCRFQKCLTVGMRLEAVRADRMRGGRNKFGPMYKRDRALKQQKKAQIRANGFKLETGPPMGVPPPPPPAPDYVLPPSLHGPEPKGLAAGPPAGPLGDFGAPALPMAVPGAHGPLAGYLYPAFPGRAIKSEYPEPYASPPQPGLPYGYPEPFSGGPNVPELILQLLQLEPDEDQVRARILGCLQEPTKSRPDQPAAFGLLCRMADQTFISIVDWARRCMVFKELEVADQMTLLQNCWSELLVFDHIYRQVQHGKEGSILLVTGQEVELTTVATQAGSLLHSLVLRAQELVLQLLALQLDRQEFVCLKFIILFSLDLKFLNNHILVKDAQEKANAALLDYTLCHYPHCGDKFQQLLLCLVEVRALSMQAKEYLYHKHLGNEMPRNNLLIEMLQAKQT
Chain of Nuclear receptor subfamily 5 group A member 2 (O00482 whole entry): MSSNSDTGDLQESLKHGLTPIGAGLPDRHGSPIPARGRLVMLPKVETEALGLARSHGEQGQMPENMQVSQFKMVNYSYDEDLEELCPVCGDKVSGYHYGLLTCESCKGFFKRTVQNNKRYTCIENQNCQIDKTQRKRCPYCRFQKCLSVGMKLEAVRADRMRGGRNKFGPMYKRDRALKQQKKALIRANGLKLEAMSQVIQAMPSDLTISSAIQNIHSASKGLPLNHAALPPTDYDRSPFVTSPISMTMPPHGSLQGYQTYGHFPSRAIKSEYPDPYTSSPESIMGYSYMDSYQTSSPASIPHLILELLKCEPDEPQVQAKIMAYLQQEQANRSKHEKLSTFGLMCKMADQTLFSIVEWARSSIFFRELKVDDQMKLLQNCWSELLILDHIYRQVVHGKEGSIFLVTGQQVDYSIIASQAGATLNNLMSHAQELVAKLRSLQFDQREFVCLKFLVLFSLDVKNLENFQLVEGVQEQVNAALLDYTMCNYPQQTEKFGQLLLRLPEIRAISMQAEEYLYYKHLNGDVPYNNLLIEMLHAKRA
Chain of Luciferin 4-monooxygenase (P08659 whole entry): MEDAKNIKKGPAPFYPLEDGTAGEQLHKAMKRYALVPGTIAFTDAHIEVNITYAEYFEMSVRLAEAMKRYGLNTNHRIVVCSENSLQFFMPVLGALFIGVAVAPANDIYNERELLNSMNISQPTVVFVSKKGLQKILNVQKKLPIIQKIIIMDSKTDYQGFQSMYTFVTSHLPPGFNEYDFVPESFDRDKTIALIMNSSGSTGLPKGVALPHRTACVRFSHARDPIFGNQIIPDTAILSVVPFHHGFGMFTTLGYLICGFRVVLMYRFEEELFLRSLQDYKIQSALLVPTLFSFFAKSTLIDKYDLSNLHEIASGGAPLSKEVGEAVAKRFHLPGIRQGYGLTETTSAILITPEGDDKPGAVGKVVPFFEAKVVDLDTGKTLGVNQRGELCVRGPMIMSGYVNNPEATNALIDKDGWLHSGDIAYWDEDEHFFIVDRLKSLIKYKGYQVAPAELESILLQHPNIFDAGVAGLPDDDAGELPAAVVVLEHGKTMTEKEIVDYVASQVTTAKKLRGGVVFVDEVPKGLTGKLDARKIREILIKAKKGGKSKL

CCCc1cc(=O)oc2cc(C)cc(OCC(=O)Nc3ccccn3)c12
IC50 [1]: 3.99 µM (active) | IC50 [2]: 35.9 µM (inactive) | IC50 [3]: 0.802 µM (active)

CCc1cc(=O)oc2c(C)c(OCC(=O)NC3CC(C)(C)NC(C)(C)C3)ccc12
EC50 [4]: > 112 µM (not active) | IC50 [1]: 35.9 µM (inactive) | EC50 [5]: > 112 µM (not active) | IC50 [2]: 35.9 µM (inactive) | IC50 [3]: 1.82 µM (active)

CCC1S/C(=C(\C#N)C(N)=O)N(c2ccc(F)cc2)C1=O (configuration not stated)
IC50 [6]: 32.6 µM (not active)

COc1ccc(C#Cc2ccc([C@H]3[C@H]4CN(C(=O)c5ccccc5)CC(=O)N4[C@H]3CO)cc2)cc1
AC50 [7]: 2.26 µM (active) | AC50 [8]: 23.5 µM (active) | AC50 [9]: 3.84 µM (active) | AC50 [10]: 2.13 µM (active) | AC50 [11]: 2.52 µM (active)

Cc1ccc(N/C=C2/C(=O)N(c3nccs3)C(=O)c3ccccc32)c(C)c1
EC50 [12]: > 99 µM (inactive) | EC50 [13]: > 99 µM (inactive)

OC(CN1CCCCC1)Cn1c2ccccc2c2cc(Br)ccc21 (configuration not stated)
AC50 [14]: 19 µM (active)

C[C@H]1CN([C@@H](C)CO)C(=O)Cc2cc(NC(=O)Nc3ccc(C(F)(F)F)cc3)ccc2O[C@H]1CN(C)Cc1ccc(C(F)(F)F)cc1
AC50 [15]: 4.47 µM (active)

Cc1ccccc1Nc1nc(-c2cccnc2)nc2ccccc12
IC50 [1]: 15.5 µM (inactive) | IC50 [2]: 24.9 µM (inactive) | EC50 [16]: 0.741 µM (active) | IC50 [3]: 12.6 µM (inactive) | EC50 [17]: > 60 µM (inconclusive)

CCCCN(CCCC)CCNC(=O)c1cn(C)c2ccc(S(=O)(=O)N(C)C3CCCCC3)cc2c1=O
IC50 [18]: 15.6 µM (active)

CC1=CC(=C2C(=O)c3ccccc3C2=O)C=C(C)N1Cc1ccco1
IC50 [6]: 22.9 µM (not active)

COc1ccc(C(=O)NCc2cn3c(C)csc3n2)cc1OC
IC50 [6]: > 31 µM (not active)

COc1cc(C(=O)NCC(=O)N/N=C/c2ccc(-c3cccc([N+](=O)[O-])c3)o2)cc(OC)c1OC
IC50 [19]: 10.6 µM (active)

CNS(=O)(=O)c1ccc2nc(NC(=O)/C=C/c3ccco3)sc2c1
IC50 [19]: > 79 µM (inactive)

CN(C)/C=c1\sc2c(C#N)cc(C(=O)c3ccc(Br)cc3)n2c1=O
EC50 [12]: 22.3 µM (inactive) | EC50 [13]: > 99 µM (inactive)

Cc1noc(C)c1S(=O)(=O)Nc1ccc2c(c1)CC(=O)N([C@H](C)CO)C[C@@H](C)[C@@H](CN(C)Cc1ccc(Cl)c(Cl)c1)O2
AC50 [15]: 6.96 µM (active)

C[C@H](CO)N1C[C@H](C)[C@H](CN(C)C(=O)Nc2ccccc2)Oc2ncc(C#Cc3ccc(C(F)(F)F)cc3)cc2C1=O
AC50 [15]: 1.37 µM (active)

Nc1ccc(C(=O)NN2C(=O)[C@H](Cl)C2c2ccc(Cl)cc2)cc1 (some centres not stated)
IC50 [1]: 11.9 µM (inactive) | IC50 [2]: 28.8 µM (inactive) | IC50 [3]: 11.7 µM (inactive)

COc1cc2c(cc1OC)C(/C=C(\O)c1ccc([N+](=O)[O-])c(C)c1)=NCC2
EC50 [12]: 43.8 µM (inactive) | EC50 [13]: > 99 µM (inactive)
